We go through two compounds from patent US20230265336A1, “COMPOSITION WITH FOAMING PROPERTIES” (priority 2020, published 2023).

The conditions of series [1]: based on the safety data sheet (SDS); cited from earlier work.

With `[Cl-].[Cl-].[Mg+2]` [magnesium chloride], in series [1], the “Biodegradability (in words)” value is given as “good biodegradability” and the “Toxicity as an individual substance (in words)” value is reported as “non-toxic”.
In the case of `[O]=[Mg]` [MgO], the “Solubility in brine (in words)” value is recorded as “insoluble”.
